The subject of one series is male genitals. In words: Irritation test on male genitals / urethra. The note with it: gel in K-Y Lubricating Jelly, about 5% w/v; passive and active rubbing. Here is the method:
In all examples, the test subjects were a monogamous married couple, free of genital herpes and all other known sexually transmitted viruses.
The mixture of zinc acetate in K-Y Lubricating Jelly was tested on the male genitals, passively at first and then with active rubbing.
About 0.5 grams were dissolved in several drops of distilled water and tested on the forearm and genitals.

A further series deals with vagina. Briefly: Irritation test in shallow region of the vagina (volunteer). It counts as in vivo, human.
Series [1] relates to genitals (both persons, during intercourse). In words: Irritation test of lubricant during intercourse / human volunteers. It counts as in vivo. The text has this: Subsequently, the gel formulation was applied topically and used as a sexual lubricant during intercourse. Both people wiped off the excess with a tissue after intercourse, but neither person showered or washed off the lubricant until the following day. It caused no irritation to either person.

Series [2] deals with HIV. In words: HIV infectivity tests with zinc acetate 1.5% (diluted and undiluted viral stocks, p24 ELISA). It counts as cell-based, HIV-1. The text has this:
The tests described above, in Example 8, used an undiluted high-titer viral stock, which contained at least ten million infectious viral particles per ml. That concentration can be achieved in a laboratory only by special culturing, purification, and concentration techniques, and it is vastly higher than would actually occur in the ejaculate of an HIV-infected person (especially someone who is not in the end stages of the disease, and who might pose a significant risk of transmitting the virus to an unknowing sexual partner).
These tests used serial dilutions of the viral stocks, at ranges from 1:10 to 1:10,000. To create the 1:10 dilution, 500 μl of viral stock was mixed with 4.5 ml of RPMI medium. Subsequent dilutions added 9 ml of RPMI medium to 1 ml from the preceding dilution.
(§1) A 2 ml aliquot from each dilution was mixed with an equal volume of 3% ZnAc dissolved in sterile distilled water; after mixing, the zinc concentration was 5.3 mg/ml Zn. These mixtures were incubated for 2 hours, then diluted with culture medium at 1:30, 1:100, and 1:1000 to reduce the toxicity of the zinc to lymphocytes. Four ml of lymphocytes were mixed with 4 ml of each zinc/virus mixture. The zinc/virus/cell mixtures were incubated at 37° C. for 3 hours; zinc concentrations were 88, 27, and 2.7 μg/ml in the 30, 100, and 1000 dilutions.
Following the 3 hour incubation, the cells were washed twice in RPMI medium and resuspended in fresh medium containing 10% FCS. Each solution was inoculated (2 ml; estimated minimum 2×10^5 cells per well) into each of three wells in a 12-well plate and cultured for 27 days, with periodic sampling and measuring of p24 antigens.
Positive controls used 1:1000 dilutions of viral stock mixed with zinc-free RPMI. These controls were consistently highly infectious, even though their concentrations were 100× lower than the 1:10 mixtures in which infectivity was eliminated by zinc treatment. Other positive controls were tested at up to 100,000× dilutions; these were highly infective in two out of the three plates tested.
While carrying out the viral dilution tests, tests were also performed using 2 ml of 3% ZnAc solution in distilled water mixed with 2 ml aliquots of undiluted viral stock. The zinc/virus mixtures were incubated for 2 hours, diluted with RPMI at 1:100 and 1:1000 ratios, and mixed with lymphocytes for three hours; zinc concentrations were 27 and 2.7 μg/ml. The cells were washed twice, inoculated into 12 well plates as described above, and cultured for 27 days.

In series [3] the test system is HIV. In words: HIV precipitation test. The note with it: 2% ZnAc with equal volume of undiluted viral stock. Here is the method:
Precipitation tests using HIV were also carried out Biotech Research Laboratories, using 2% ZnAc which was mixed with an equal volume of undiluted viral stock, incubated for 24 hours, and centrifuged at 1500 rpm in a tabletop centrifuge for 5 minutes. The supernatant was sampled ([…]) and serially diluted by medium, at 1:10 followed by 2× dilutions (1:20, 1:40, 1:80, etc) to a maximum dilution of 1:10240. Each dilution was analyzed spectrophotometrically to determine the concentration of viruses suspended in solution. After sampling, each tube was hand-mixed and incubated for 24 hours. The solution near the top of the tube was sampled again, serially diluted, and tested using the ELISA assay. The tube was hand-mixed again, incubated for three more days, and sampled again to obtain Day 5 values.

In the next series the test system is H-9 lymphocytes. In words: Toxicity to lymphocytes. Type of series: cell-based. Here is the method:
In a first set of tests, 20 mg of zinc acetate powder (ZnAc, MW 183.4) was mixed in 1 ml RPMI cell culture medium (Whittaker Corp.). This 2% (w/v) salt mixture contained 7 mg/ml elemental Zn. […] Therefore, a small quantity of HCl was added until the mixture became clear; the pH was about 5.5. The Zn concentration was reduced by half (and the pH was raised somewhat) when an equal volume (1 ml) of cell-free high-titer HIV-1 viral stock was added. The zinc/virus mixture was stirred and incubated for 2 hours at 37° C. (i.e., normal body temperature).
Following this first incubation step, the zinc/virus mixtures were diluted at 1:10, 1:30, and 1:100 ratios using culture medium, and aliquots were added to equal volumes of culture media containing H-9 lymphocytes that had been pretreated overnight with 2 μg/ml Polybreen. The lymphocyte mixtures were incubated for three hours at 37° C.; zinc concentrations during this step were 180, 60, and 18 μg/ml for the 1:10, 1:30, and 1:100 dilutions.
as §1

The conditions of series [4]: water; cited from earlier work.
In another series the test system is several cell lines. Briefly: Zinc toxicity in several cell lines. The settings on record: read-out: concentration at which toxicity began to appear in mild form, all comparable.

We go through one substance from US6321750A, “Condom lubricants with zinc salts as anti-viral additives” (priority 1999, dated 2001).

Entries after “also recorded” stand apart in the source; their conditions may differ. Where two headings read alike, the source gives them in different places.

Regarding Zinc acetate, the “irritation, male genitals” value in the series with male genitals is reported as “no irritation”. Also, in the series with vagina (dissolved in (distilled) water alone), the “irritation, vagina” value was “unpleasant tingling or mild burning sensation; also recorded: vaginal irritation”. Also, the “irritation, vagina / female genitals” value in the series on vagina (gel in K-Y Lubricating Jelly, about 5% w/v, passive test) is “no tingling, burning, or other unpleasant sensation”. Besides, the irritation during intercourse result in series [1] (gel in K-Y Lubricating Jelly, about 5% w/v) was “no irritation; also recorded: Neither of these salts caused any irritation”. Further, the “irritation of gel / genital lubricant formulations” value in series [1] (in gel or genital lubricant, human volunteers) is “did not cause any irritation”. Further, the HIV infectivity entry in the series on HIV [2] (10×, 100×, 1000× diluted stocks, zinc/virus diluted 1:1000 (2.7 μg/ml Zn)) is “completely blocked infectivity”; with HIV [2] (diluted stocks, zinc/virus diluted 1:100 (27 μg/ml Zn)), “viral infectivity was completely blocked”; in the series on HIV [2] (diluted viral stocks, 1.5% zinc acetate 2 h), “completely eliminated”; with HIV [2] (diluted viral stocks, 1.5% zinc acetate 2 h, listed as ZnAc), “completely eliminated the infectivity”; with HIV [2] (undiluted stock, zinc/virus diluted 1:100 (27 μg/ml Zn), 27 days) it was “completely prevented infectivity”; with HIV [2] (undiluted stock, zinc/virus diluted 1:1000 (2.7 μg/ml Zn), 27 days) it was “delayed the onset of infection”. For the same substance, in the series on HIV [2] (high-titer stocks, various concentrations of zinc acetate), the “HIV infectivity (FIG. 4)” value was “either eliminated or suppressed”. In addition, the “virus precipitation” value in the series with HIV [3] is recorded as “substantial precipitation of the virus”. Also, the cell mortality entry is on record as “significant cell mortality” in the series with H-9 lymphocytes (88 μg/ml Zn, 3 h); “no cell mortality” in the series on H-9 lymphocytes (lower levels (27 and 2.7 μg/ml Zn), 3 h). For the same substance, the lymphocyte mortality result with H-9 lymphocytes (1:10 dilution, 180 μg/ml Zn, 3 h) was “substantial mortality to the lymphocytes”. The lymphocyte growth entry in the series with H-9 lymphocytes (1:30 dilution, 60 μg/ml Zn, visual observation) is given as “retarded cell growth during the first few days”. Moreover, the “solubility in cell culture medium / water” value (20 mg in 1 ml RPMI culture medium containing protein) is on record as “generated a precipitate in the culture medium”. In addition, the “solubility in water” value is “highly soluble in water” (general statement) and “dissolved completely” (salt in a few drops of distilled water, room temperature). Moreover, in series [4], the Molar solubility was 1.64. In series [4], the Solubility is reported as 300. Moreover, the MCC in the series with several cell lines was around 100 mM.
